From patent US20110136666A1, “CHEMICAL COMPOUNDS” (SYNGENTA CROP PROTECTION, INC., priority 2008, published 2011)

How the values were obtained:
Type in all cases: in vivo
[1] = system: Ipomea hederaceae (IPOHE); test: Post-emergence biological efficacy, glasshouse pot test; conditions: Ipomoea hederacea, 312 h, after 13 days, 100=total damage, 0=no damage, read-out: Percentage damage caused to weed species IPONE
Procedure: (§1) Seeds of Alopecurus myosuroides (ALOMY), Setaria faberi (SETFA), Echinochloa crus-galli (ECHCG), Solanum nigrum (SOLNI), Amaranthus retroflexus (AMARE) and Ipomea hederaceae (IPOHE) were sown in standard soil in pots. After cultivation for 8 days under controlled conditions in a glasshouse (at 24/16° C., day/night; 14 hours light; 65% humidity), the plants were sprayed with an aqueous spray solution derived from the formulation of the technical active ingredient in acetone/water (50:50) solution containing 0.5% Tween 20 (polyoxyethylene sorbitan monolaurate, CAS RN 9005-64-5) to give a final dose of 250 or 1000 g/ha of test compound.
(§2) The test plants were then grown on under controlled conditions in a glasshouse (at 24/16° C., day/night; 14 hours light; 65% humidity) and watered twice daily. After 13 days the test was evaluated (100=total damage to plant; 0=no damage to plant).

Setaria faberi (SETFA) [2] = test: as above; conditions: 312 h, after 13 days, 100=total damage, 0=no damage, read-out: Percentage damage caused to weed species SETFA
Procedure: as §1, §2

[3] = system: Echinochloa crus-galli (ECHCG); test: as above; conditions: 312 h, after 13 days, 100=total damage, 0=no damage, read-out: Percentage damage caused to weed species ECHCG
Procedure: as §1, §2

[4] = system: Amaranthus retroflexus (AMARE); test: as above; conditions: 312 h, after 13 days, 100=total damage, 0=no damage, read-out: Percentage damage caused to weed species AMARE
Procedure: as §1, §2

[5] = system: Alopecurus myosuroides (ALOMY); test: as above; conditions: 312 h, after 13 days, 100=total damage, 0=no damage, read-out: Percentage damage caused to weed species ALOMY
Procedure: as §1, §2

Solanum nigrum (SOLNI) [6] = test: as above; conditions: 312 h, after 13 days, 100=total damage, 0=no damage, read-out: Percentage damage caused to weed species SOLNI
Procedure: as §1, §2

[7] = system: Ipomea hederaceae (IPOHE); test: Pre-emergence biological efficacy, glasshouse pot test; conditions: Ipomoea hederacea, 312 h, after 13 days, 100=total damage, 0=no damage, read-out: Percentage damage caused to weed species IPOHE
Procedure: as §1, with “one day” for “8 days”
(§3) The test plants were then grown under controlled conditions in the glasshouse (at 24/16° C., day/night; 14 hours light; 65% humidity) and watered twice daily. After 13 days the test was evaluated (100=total damage to plant; 0=no damage to plant).

Setaria faberi (SETFA) [8] = test: as above; conditions: 312 h, after 13 days, 100=total damage, 0=no damage, read-out: Percentage damage caused to weed species SETFA
Procedure: as §1, with “one day” for “8 days”
as §3

[9] = system: Echinochloa crus-galli (ECHCG); test: as above; conditions: 312 h, after 13 days, 100=total damage, 0=no damage, read-out: Percentage damage caused to weed species ECHCG
Procedure: as §1, with “one day” for “8 days”
as §3

[10] = system: Amaranthus retroflexus (AMARE); test: as above; conditions: 312 h, after 13 days, 100=total damage, 0=no damage, read-out: Percentage damage caused to weed species AMARE
Procedure: as §1, with “one day” for “8 days”
as §3

[11] = system: Alopecurus myosuroides (ALOMY); test: as above; conditions: 312 h, after 13 days, 100=total damage, 0=no damage, read-out: Percentage damage caused to weed species ALOMY
Procedure: as §1, with “one day” for “8 days”
as §3

Solanum nigrum (SOLNI) [12] = test: as above; conditions: 312 h, after 13 days, 100=total damage, 0=no damage, read-out: Percentage damage caused to weed species SOLNI
Procedure: as §1, with “one day” for “8 days”
as §3

Compound	pest or weed control at 1000 g/ha [1]	pest or weed control at 1000 g/ha (Setaria faberi (SETFA) [2])	pest or weed control at 1000 g/ha [3]	pest or weed control at 1000 g/ha [4]	pest or weed control at 1000 g/ha [5]	pest or weed control at 1000 g/ha (Solanum nigrum (SOLNI) [6])	pest or weed control at 1000 g/ha [7]	pest or weed control at 1000 g/ha (Setaria faberi (SETFA) [8])	pest or weed control at 1000 g/ha [9]	pest or weed control at 1000 g/ha [10]	pest or weed control at 1000 g/ha [11]	pest or weed control at 1000 g/ha (Solanum nigrum (SOLNI) [12])	pest or weed control at 250 g/ha [1]	pest or weed control at 250 g/ha (Setaria faberi (SETFA) [2])	pest or weed control at 250 g/ha [3]	pest or weed control at 250 g/ha [4]	pest or weed control at 250 g/ha [5]	pest or weed control at 250 g/ha (Solanum nigrum (SOLNI) [6])	pest or weed control at 250 g/ha [7]	pest or weed control at 250 g/ha (Setaria faberi (SETFA) [8])	further results
Nc1nc(-c2ccc(Cl)s2)nc(C(=O)O)c1Cl [Compound 1-2, 4-amino-5-chloro-2-(5-chlorothiophen-2-yl)-pyrimidine-6-carboxylic acid]	60%	50%	20%	100%	10%	80%	0%	0%	0%	100%	0%	30%	–	–	–	–	–	–	–	–	–
COC(=O)c1nc(-c2cccs2)nc(N)c1Cl [Compound 2-1, 4-Amino-5-chloro-6-methoxycarbonyl-2-thiophen-2-ylpyrimidine]	50%	0%	0%	0%	0%	0%	0%	0%	0%	0%	0%	0%	–	–	–	–	–	–	–	–	–
COC(=O)c1nc(-c2ccc(Cl)s2)nc(N)c1Cl [Compound 2-2, 4-Amino-5-chloro-2-(5-chlorothiophen-2-yl)-6-methoxycarbonyl pyrimidine]	70%	0%	0%	100%	0%	90%	20%	0%	0%	80%	0%	0%	–	–	–	–	–	–	–	–	–
COC(=O)c1nc(-c2ccc(C#N)s2)nc(N)c1Cl [Compound 2-3, 4-Amino-5-chloro-2-(5-cyanothiophen-2-yl)-6-methoxycarbonyl pyrimidine]	0%	0%	0%	0%	0%	0%	0%	0%	0%	0%	0%	0%	–	–	–	–	–	–	–	–	–
COC(=O)c1nc(-c2ccc(OC)s2)nc(N)c1Cl [Compound 2-7, 4-Amino-5-chloro-6-methoxycarbonyl-2-(5-methoxythiophen-2-yl)-pyrimidine]	80%	70%	80%	100%	0%	80%	20%	20%	60%	90%	0%	0%	–	–	–	–	–	–	–	–	–
COC(=O)c1nc(-c2ccc(C(C)=O)s2)nc(N)c1Cl [Compound 2-9, 4-Amino-5-chloro-6-methoxycarbonyl-2-(5-methylcarbonyl-thiophen-2-yl)-pyrimidine]	–	–	–	–	–	–	–	–	–	–	–	–	0%	0%	0%	0%	0%	0%	0%	0%	pest or weed control at 250 g/ha [9]: 0%; pest or weed control at 250 g/ha [10]: 0%; pest or weed control at 250 g/ha [11]: 0%; pest or weed control at 250 g/ha (Solanum nigrum (SOLNI) [12]): 0%
COC(=O)c1nc(-c2ccsc2)nc(N)c1Cl [Compound 2-16, 4-Amino-5-chloro-6-methoxycarbonyl-2-thiophen-3-ylpyrimidine]	–	–	–	–	–	–	–	–	–	–	–	–	40%	0%	0%	0%	20%	0%	0%	0%	pest or weed control at 250 g/ha [9]: 0%; pest or weed control at 250 g/ha [10]: 90%; pest or weed control at 250 g/ha [11]: 10%; pest or weed control at 250 g/ha (Solanum nigrum (SOLNI) [12]): 30%
COC(=O)c1nc(-c2cscc2C)nc(N)c1Cl [Compound 2-17, 4-Amino-5-chloro-6-methoxycarbonyl-2-(4-methylthiophen-3-yl)-pyrimidine]	–	–	–	–	–	–	–	–	–	–	–	–	0%	0%	0%	0%	0%	0%	0%	0%	pest or weed control at 250 g/ha [9]: 0%; pest or weed control at 250 g/ha [10]: 50%; pest or weed control at 250 g/ha [11]: 0%; pest or weed control at 250 g/ha (Solanum nigrum (SOLNI) [12]): 0%
COC(=O)c1nc(-c2ccsc2Cl)nc(N)c1Cl [Compound 2-18, 4-Amino-5-chloro-2-(2-chlorothiophen-3-yl)-6-methoxycarbonyl pyrimidine]	–	–	–	–	–	–	–	–	–	–	–	–	40%	10%	10%	20%	10%	0%	0%	0%	pest or weed control at 250 g/ha [9]: 0%; pest or weed control at 250 g/ha [10]: 0%; pest or weed control at 250 g/ha [11]: 0%; pest or weed control at 250 g/ha (Solanum nigrum (SOLNI) [12]): 0%
COC(=O)c1nc(-c2cc(Cl)sc2Cl)nc(N)c1Cl [Compound 2-19, 4-Amino-5-chloro-2-(2,5-dichlorothiophen-3-yl)-6-methoxycarbonyl pyrimidine]	70%	30%	10%	100%	0%	70%	30%	0%	0%	20%	0%	20%	–	–	–	–	–	–	–	–	–
COC(=O)c1nc(-c2ccoc2)nc(N)c1Cl [Compound 2-34, 4-Amino-5-chloro-2-(furan-3-yl)-6-methoxycarbonyl pyrimidine]	50%	0%	0%	30%	10%	10%	0%	0%	0%	0%	0%	0%	–	–	–	–	–	–	–	–	–
